According to the supplement of paper PMC10307832:

Tests used:
Assay in all cases: relative viability (nuclei count vs DMSO), 5 days (fraction); higher = more cells survive
NCI-H1734 = test system: NCI-H1734
In short: (§1)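 Relative viability was taken as the ratio of nuclei in treated wells to nuclei in vehicle wells. Lung cancer cell lines in 1536-well plates received compounds by pin tool one day after seeding, either one drug alone or a fixed anchor-drug dose plus five library-drug doses (not always all listed) in √10 steps. Nuclei were counted on 4× images after 5 days of treatment, and values are medians of duplicate plates.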

NCI-H2405 = test system: NCI-H2405
In short: as §1

NCI-H322M = test system: NCI-H322M
In short: as §1

H3255 = test system: H3255
In short: as §1

NCI-H2170 = test system: NCI-H2170
In short: as §1

UMC-11 = test system: UMC-11
In short: as §1

SW 900 = test system: SW 900
In short: as §1

NCI-H1793 = test system: NCI-H1793
In short: as §1

PC-14 = test system: PC-14
In short: as §1

NCI-H647 = test system: NCI-H647
In short: as §1

NCI-H1563 = test system: NCI-H1563
In short: as §1

NCI-H2023 = test system: NCI-H2023
In short: as §1

COR-L23 = test system: COR-L23
In short: as §1

NCI-H441 = test system: NCI-H441
In short: as §1

HCC-15 = test system: HCC-15
In short: as §1

LOU-NH91 = test system: LOU-NH91
In short: as §1

201T = test system: 201T
In short: as §1

NCI-H1650 = test system: NCI-H1650
In short: as §1

NCI-H3122 = test system: NCI-H3122
In short: as §1

NCI-H520 = test system: NCI-H520
In short: as §1

NCI-H2347 = test system: NCI-H2347
In short: as §1

EPLC-272H = test system: EPLC-272H
In short: as §1

Q: What does the source list for `O=c1cc(N2CCOCC2)oc2c(-c3cccc4c3sc3ccccc34)cccc12` + COc1cc2c(Oc3ccc(NC(=O)C4(C(=O)Nc5ccc(F)cc5)CC4)cc3F)ccnc2cc1OCCCN1CCOCC1 [Foretinib] (partner 0.25 µM)?
A: relative viability (NCI-H1734; first compound 0.01 µM): 0.851; relative viability (NCI-H1734; first compound 0.03162 µM): 1.03; relative viability (NCI-H1734; first compound 0.1 µM): 0.894; relative viability (NCI-H1734; first compound 0.3162 µM): 0.837; relative viability (NCI-H1734; first compound 1 µM): 0.78; relative viability (NCI-H2405; first compound 0.01 µM): 1.07; relative viability (NCI-H2405; first compound 0.03162 µM): 1.07; relative viability (NCI-H2405; first compound 0.1 µM): 1.12; relative viability (NCI-H2405; first compound 0.3162 µM): 1.03; relative viability (NCI-H2405; first compound 1 µM): 1.02; relative viability (NCI-H322M; first compound 0.01 µM): 0.91; relative viability (NCI-H322M; first compound 0.03162 µM): 0.903; relative viability (NCI-H322M; first compound 0.1 µM): 0.888; relative viability (NCI-H322M; first compound 0.3162 µM): 0.917; relative viability (NCI-H322M; first compound 1 µM): 0.849; relative viability (H3255; first compound 0.01 µM): 0.82; relative viability (H3255; first compound 0.03162 µM): 0.952; relative viability (H3255; first compound 0.1 µM): 0.826; relative viability (H3255; first compound 0.3162 µM): 0.83; relative viability (H3255; first compound 1 µM): 0.943; relative viability (NCI-H2170; first compound 0.01 µM): 0.968; relative viability (NCI-H2170; first compound 0.03162 µM): 0.542; relative viability (NCI-H2170; first compound 0.1 µM): 1.03; relative viability (NCI-H2170; first compound 0.3162 µM): 0.935; relative viability (NCI-H2170; first compound 1 µM): 0.942; relative viability (UMC-11; first compound 0.01 µM): 1; relative viability (UMC-11; first compound 0.03162 µM): 1.08; relative viability (UMC-11; first compound 0.1 µM): 1.03; relative viability (UMC-11; first compound 0.3162 µM): 1.01; relative viability (UMC-11; first compound 1 µM): 0.91; relative viability (SW 900; first compound 0.01 µM): 0.859; relative viability (SW 900; first compound 0.03162 µM): 0.888; relative viability (SW 900; first compound 0.1 µM): 0.789; relative viability (SW 900; first compound 0.3162 µM): 0.798; relative viability (SW 900; first compound 1 µM): 0.818; relative viability (NCI-H1793; first compound 0.01 µM): 0.594; relative viability (NCI-H1793; first compound 0.1 µM): 0.568; relative viability (NCI-H1793; first compound 0.3162 µM): 0.685; relative viability (NCI-H1793; first compound 1 µM): 0.486; relative viability (PC-14; first compound 0.01 µM): 0.957; relative viability (PC-14; first compound 0.03162 µM): 0.965; relative viability (PC-14; first compound 0.1 µM): 0.994; relative viability (PC-14; first compound 0.3162 µM): 0.987; relative viability (PC-14; first compound 1 µM): 0.948; relative viability (NCI-H647; first compound 0.01 µM): 1.24; relative viability (NCI-H647; first compound 0.03162 µM): 1.34; relative viability (NCI-H647; first compound 0.1 µM): 1.34; relative viability (NCI-H647; first compound 0.3162 µM): 1.24; relative viability (NCI-H647; first compound 1 µM): 1.08; relative viability (NCI-H1563; first compound 0.01 µM): 0.913; relative viability (NCI-H1563; first compound 0.03162 µM): 0.833; relative viability (NCI-H1563; first compound 0.1 µM): 0.895; relative viability (NCI-H1563; first compound 0.3162 µM): 0.901; relative viability (NCI-H1563; first compound 1 µM): 0.888; relative viability (NCI-H2023; first compound 0.01 µM): 0.719; relative viability (NCI-H2023; first compound 0.03162 µM): 0.803; relative viability (NCI-H2023; first compound 0.1 µM): 0.763; relative viability (NCI-H2023; first compound 0.3162 µM): 0.873; relative viability (NCI-H2023; first compound 1 µM): 0.636; relative viability (COR-L23; first compound 0.01 µM): 1.03; relative viability (COR-L23; first compound 0.03162 µM): 0.996; relative viability (COR-L23; first compound 0.1 µM): 0.954; relative viability (COR-L23; first compound 0.3162 µM): 0.923; relative viability (COR-L23; first compound 1 µM): 1.06; relative viability (NCI-H441; first compound 0.01 µM): 1.17; relative viability (NCI-H441; first compound 0.03162 µM): 0.864; relative viability (NCI-H441; first compound 0.1 µM): 1.02; relative viability (NCI-H441; first compound 0.3162 µM): 0.992; relative viability (NCI-H441; first compound 1 µM): 0.969; relative viability (HCC-15; first compound 0.01 µM): 1.01; relative viability (HCC-15; first compound 0.03162 µM): 1.09; relative viability (HCC-15; first compound 0.1 µM): 1.09; relative viability (HCC-15; first compound 0.3162 µM): 0.989; relative viability (HCC-15; first compound 1 µM): 0.971; relative viability (LOU-NH91; first compound 0.01 µM): 0.869; relative viability (LOU-NH91; first compound 0.03162 µM): 0.938; relative viability (LOU-NH91; first compound 0.1 µM): 1; relative viability (LOU-NH91; first compound 0.3162 µM): 0.927; relative viability (LOU-NH91; first compound 1 µM): 0.955; relative viability (201T; first compound 0.01 µM): 1.1; relative viability (201T; first compound 0.03162 µM): 1.13; relative viability (201T; first compound 0.1 µM): 1.1; relative viability (201T; first compound 0.3162 µM): 0.963; relative viability (201T; first compound 1 µM): 1.06; relative viability (NCI-H1650; first compound 0.01 µM): 1.09; relative viability (NCI-H1650; first compound 0.03162 µM): 1.09; relative viability (NCI-H1650; first compound 0.1 µM): 1.04; relative viability (NCI-H1650; first compound 0.3162 µM): 1.21; relative viability (NCI-H1650; first compound 1 µM): 1.19; relative viability (NCI-H3122; first compound 0.01 µM): 0.953; relative viability (NCI-H3122; first compound 0.03162 µM): 0.918; relative viability (NCI-H3122; first compound 0.1 µM): 1; relative viability (NCI-H3122; first compound 0.3162 µM): 0.932; relative viability (NCI-H3122; first compound 1 µM): 0.954; relative viability (NCI-H520; first compound 0.01 µM): 0.896; relative viability (NCI-H520; first compound 0.03162 µM): 0.86; relative viability (NCI-H520; first compound 0.1 µM): 0.725; relative viability (NCI-H520; first compound 0.3162 µM): 0.774; relative viability (NCI-H520; first compound 1 µM): 0.734; relative viability (NCI-H2347; first compound 0.01 µM): 0.963; relative viability (NCI-H2347; first compound 0.03162 µM): 0.761; relative viability (NCI-H2347; first compound 0.1 µM): 0.675; relative viability (NCI-H2347; first compound 0.3162 µM): 0.855; relative viability (NCI-H2347; first compound 1 µM): 1.05; relative viability (EPLC-272H; first compound 0.01 µM): 0.607; relative viability (EPLC-272H; first compound 0.03162 µM): 0.667; relative viability (EPLC-272H; first compound 0.3162 µM): 0.734; relative viability (EPLC-272H; first compound 1 µM): 0.688
